Key:
[1] = system: Axl and FLT3 phosphorylation in AML cells; assay: Western blot of Axl and FLT3 phosphorylation in AML cells; type: cell-based, human
Source text: (§1) Cell lysates subjected to sodium dodecyl sulfate polyacrylamide gel electrophoresis followed by transfer to nitrocellulose membrane. The membranes were then probed with primary antibodies against total Axl (AF154, R&D Systems, INC., Minneapolis, Minn.), phospho-Axl (T702; #5724, CST, Danvers, Mass.), total Akt (#4691 CST, Danvers, Mass.), phosphor-Akt (#4060, CST, Danvers, Mass.), anti-MERTK (#ab52968, Abcam, Cambridge, Mass.), phospho-MERTK (#ab14921 Abcam, Cambridge, Mass.), anti-Tyro3 (#5585, CST, Danvers, Mass.), phospho-Tyro3 (#orb186274, Biorbyt LLC, Berkely, Calif.), Bcl-2 Family Antibody Sampler Kit (#9934, CST, Danvers, Mass.), anti-Chk2 (#sc-5278, Santa Cruz Biotech, INC., Santa Cruz, Calif.), anti-XRCC1 (#2735, CST, Danvers, Mass.), anti-γH2AX (Merck Millipore #05636, Darmstadt, Germany), anti-phospho-ATM (#ab81292, Abcam, Cambridge, Mass.), anti-ATM (#ab78, Abcam, Cambridge, Mass.), anti phospho-ATR (#2853, CST, Danvers, Mass.), anti-ATR (#2790, CST, Danvers, Mass.), anti-Phospho Chk1 (#12302, CST, Danvers, Mass.), anti-Phospho Chk2 (#2197, CST, Danvers, Mass.) and anti-RPA32 (#2208, CST, Danvers, Mass.) at 4° C. overnight. The blots were then washed and probed with HRP conjugated anti-goat (#sc-2020, Santa Cruz Biotech, INC., Santa Cruz, Calif.), or HRP conjugated anti-rabbit (#A16110, Thermo Fisher Scientific, Walthan, Mass.) as appropriate. The blots were developed with Bio-Rad Western C developing reagent (#170-5060 Bio-Rad, Hercules, Calif.) and visualized with Chemidoc digital imager (#1708280, Bio-Rad, Hercules, Calif.).

4T1 luciferase cells = type: in vivo
Source text: In this model, cells orthotopically implanted in the mammary fat pad generate primary masses that metastasize to the lungs.
Comparison of MYD1-72 Fc with clinical Axl. TKIs There are currently no FDA approved drugs targeting Axl, though several small molecule kinase inhibitors are undergoing clinical trials. BerGenBio's BGB324 (previously Rigel's R428) is the most advanced of these compounds, and the first to be developed prospectively as an Axl inhibitor. […] Furthermore, since TKI's and biologics are fundamentally very different, as are their mechanisms of action, a direct comparison would provide valuable insights into the potential of distinct therapeutic intervention strategies. […] Cells were implanted orthotopically in the mammary fat pad, and primary tumors were allowed to establish prior to treatment. […] This dose for the TKIs was chosen as significant activity has been previously reported at equivalent concentrations.
(§2) Treatment was initiated four days post-surgery.

[2] = system: phosphorylation of Axl, Mer, Tyro3, and downstream Akt signaling in OVCAR8 cells; assay: Western blot of TAM receptor and Akt phosphorylation in OVCAR8 cells; type: cell-based, human
Source text: as §1

ovarian cancer cells [3] = assay: Immunofluorescence of DNA damage foci in ovarian cancer cells; type: cell-based
Protocol: (§3) 10,000 cells were plated in each well of glass chamber slide and allowed to attach overnight. […] Cells were then washed with PBS and fixed with 4% paraformaldehyde, lysed for 10 minutes and blocked with a 2% BSA and 0.1% PBS-Triton-X solution for 1 hour. After washes in PBS-Triton-X, cells were incubated with mouse anti-[…]H2AX, (#05-636, Merck Millipore, Darmstadt, Germany); rabbit anti-RAD51, (#PC130-100 UL Merck Millipore, Darmstadt, Germany); rabbit anti-53BP1, (# ab36823, Abcam, Cambridge, Mass.) overnight in a humidified chamber at 4 degrees. Cells were washed with PBS and incubated in secondary antibody anti-rabbit FITC (#65-6111 Thermo Fisher Scientific, Walthan, Mass. or anti-mouse FITC, (#62-6511, Thermo Fisher Scientific, Walthan, Mass.) for 1 hour at 37 degrees and counterstained with Prolong Mounting medium with DAPI. Positive foci intensity were calculated using imagine software Metamorph. EdU (5-ethynyl-2′-deoxyuridine) labeling and co-staining were carried out according to the manufacturer's instructions (#C10637, Thermo Fisher Scientific, Walthan, Mass.). γH2AX staining was performed as described above.
(§4) Cells were visualized using a Leica DM6000 B microscope with Leica Application Suite X software (Wetzlar, Germany). EdU was used at a concentration of 10 μM. EdU labeling was carried out for 1 hour in all cases, for conditions including drug treatments EdU was added during the last hour of treatment. Experiments were carried out in triplicate. Quantification of staining: Positive γH2AX staining refers to cells with over eight foci and pan-nuclear staining. For hydroxyurea (Hu) treated groups, γH2AX positive cells refers to cells where a pan-nuclear staining pattern (typically associated with replication stress) was observed.

wild-type cell lines = assay: Reverse phase protein array (RPPA); type: cell-based; conditions: continuously for seven days in low serum (1% FBS)
Protocol: (§5) To further understand this relationship, we performed a reverse phase protein array (RPPA) on shAxl cell lines and wild-type cell lines treated with MYD1-72 Fc. […] In addition, we performed western blot analysis to examine expression levels of classical DNA damage response components, including total and phosphorylated ATM, ATR, CHK1, CHK2 and RPA32 (FIG. 5B) at four time points post MYD1-72 treatment.
The RPPA was performed by MD Anderson as described.

[4] = system: ATM, ATR, CHK1, CHK2 and RPA32 in ovarian cancer cells; assay: Western blot of DNA damage response components in ovarian cancer cells; type: cell-based; conditions: low serum (0.1% FBS)
Source text: as §5, §1

ovarian cancer cells [5] = assay: EdU labeling and γH2AX co-staining; type: cell-based
Protocol: as §3, §4

OVCAR8 = OVCAR8 intraperitoneal ovarian cancer model; type: in vivo, mouse; conditions: MYD1-72 Fc 1 mg/kg daily, doxorubicin 2 mg/kg twice weekly, three weeks
Source text: (§6) At this time, several mice were sacrificed at random to ensure engraftment of diffuse metastatic disease, a hallmark of the human condition. […] After three weeks of treatment, mice were sacrificed and tumor burden was quantified both by counting the number of visible lesions, as well as excising and weighing all diseased tissue.
as §2

skov3.ip = skov3.ip intraperitoneal ovarian cancer model; type: in vivo, mouse xenograft; conditions: MYD1-72 Fc 1 mg/kg daily, doxorubicin 2 mg/kg twice weekly, three weeks
Source text: as §6, §2

[6] = system: LM-P orthotopic pancreatic cancer; assay: LM-P orthotopic pancreatic cancer model; conditions: immunohistochemistry
Protocol: LMP cells derived from the KRAS/p53 metastatic mouse model were implanted subcutaneously into the flanks of mice and allowed to grow until they reached ˜500 mm^3 in size.
To establish orthotopic tumors, mice harboring subcutaneous tumors were sacrificed and tumors were isolated and cut into small fragments. Laparotomies were then performed and a tumor fragment was secured to the tail of the pancreas.
All procedures involving animals and their care and use were approved by the Institutional Animal Care and Usage Committee of Stanford University. For all in vivo studies, six week old, female nude (nu/nu) mice (Jackson Laboratory, Bar Harbor, Me.) were used. In all studies, animals displaying signs of morbidity were removed from the study immediately. […] Treatment was initiated four days post-inoculation for both studies. […] BGB324 (Selleckchem LLC, Houston, Tex.) and Foretinib (MedChem, Monmouth Junction, N.J.). Small molecules were administered twice daily via oral gavage. […] The orthotropic LM-P pancreatic adenocarcinoma model (a gift from Dr. Edgar Engleman at Stanford University, Stanford, Calif.) was established as previously described. Briefly, 1×10^6 cells were injected subcutaneously into the flanks of nude mice and grown for 2-3 weeks until they reached 500 mm^3. […]

human Gas6 = molecular target: T1, human Gas6 (Homo sapiens, UniProt Q14393); assay: Kinetic Exclusion Assay (KinExA), Gas6-Axl binding, human Gas6
T1 sequence (Q14393 31-678): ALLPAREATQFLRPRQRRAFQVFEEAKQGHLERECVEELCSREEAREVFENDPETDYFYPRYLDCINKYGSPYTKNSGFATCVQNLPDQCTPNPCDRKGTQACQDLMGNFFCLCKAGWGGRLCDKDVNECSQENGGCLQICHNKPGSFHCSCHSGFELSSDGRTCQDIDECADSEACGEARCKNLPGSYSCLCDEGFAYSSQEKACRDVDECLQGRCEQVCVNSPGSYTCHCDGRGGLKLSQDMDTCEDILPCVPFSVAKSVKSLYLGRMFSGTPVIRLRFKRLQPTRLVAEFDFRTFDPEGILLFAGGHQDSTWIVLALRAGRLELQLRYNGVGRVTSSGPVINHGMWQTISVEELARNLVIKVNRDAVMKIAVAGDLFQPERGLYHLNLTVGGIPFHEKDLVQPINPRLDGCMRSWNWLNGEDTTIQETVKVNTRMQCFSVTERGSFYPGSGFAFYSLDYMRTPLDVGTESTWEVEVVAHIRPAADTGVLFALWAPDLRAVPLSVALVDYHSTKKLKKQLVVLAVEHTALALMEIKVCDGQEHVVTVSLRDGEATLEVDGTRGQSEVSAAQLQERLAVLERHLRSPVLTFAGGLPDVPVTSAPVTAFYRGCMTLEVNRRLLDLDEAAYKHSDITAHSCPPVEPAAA
Protocol: (§7) Equilibrium binding and association rate constants for all Gas6-Axl interactions were measured on a KinExA3200 instrument (Sapidyne Instruments Inc. Boise, Id.) as previously described. For equilibrium binding studies, three independent titrations were completed for each Axl Ig1 or Axl Fc fusion unless otherwise noted. […] After the appropriate incubation time, reactions were flowed over MYD1 Fc coated beads and captured free Gas6 was probed using an anti-6×HIS Dylight 649 antibody (#200-343-382, Rockland Immunochemicals Inc., Pottstown, Pa.). Each sample was measured twice and data from the three independent equilibrium binding experiments were globally analyzed using n-curve analysis in the KinExA Pro 3.6.2 software (Sapidyne Instruments Inc. Boise, Id.) to obtain the Kd value. To analyze the association rate of the interactions, the direct inject method was used. For these experiments, 1 μM Axl was serially diluted 1:2.5, and equal volumes of each Axl sample and 500 nM Gas6 were briefly mixed and flowed over the capture beads. Free Gas6 was detected as described and the data was fit using the KinExA Pro 3.6.2 software to obtain the association rate (kon) of the interaction. The dissociation rate (koff) was calculated as the product of the Kd and the kon.

mouse Gas6 = molecular target: T2, mouse Gas6 (Mus musculus, UniProt Q61592); assay: Kinetic Exclusion Assay (KinExA), Gas6-Axl binding, mouse Gas6
T2 sequence (Q61592 28-674): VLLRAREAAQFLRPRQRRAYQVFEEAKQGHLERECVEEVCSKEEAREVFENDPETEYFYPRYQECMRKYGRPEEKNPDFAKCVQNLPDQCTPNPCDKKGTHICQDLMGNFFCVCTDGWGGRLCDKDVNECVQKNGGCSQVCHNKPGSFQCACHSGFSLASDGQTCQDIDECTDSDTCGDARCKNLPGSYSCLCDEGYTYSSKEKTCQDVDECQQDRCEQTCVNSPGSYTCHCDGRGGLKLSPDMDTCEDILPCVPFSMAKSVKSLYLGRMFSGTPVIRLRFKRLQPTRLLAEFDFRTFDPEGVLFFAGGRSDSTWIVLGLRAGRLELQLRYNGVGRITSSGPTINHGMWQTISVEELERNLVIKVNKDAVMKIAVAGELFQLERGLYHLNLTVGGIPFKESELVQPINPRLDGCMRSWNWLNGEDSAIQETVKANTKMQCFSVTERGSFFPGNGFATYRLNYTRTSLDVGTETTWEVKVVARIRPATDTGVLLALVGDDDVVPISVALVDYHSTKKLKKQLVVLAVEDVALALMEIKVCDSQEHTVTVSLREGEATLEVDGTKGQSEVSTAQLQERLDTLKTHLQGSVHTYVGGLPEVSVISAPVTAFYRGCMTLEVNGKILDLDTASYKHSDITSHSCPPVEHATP
Protocol: as §7

## MYD1-72 Fc: Fc fusion of the second generation high-affinity Axl decoy receptor MYD1-72 (Gly32Ser, Ala72Val, Asp87Gly, Val92Ala, Gly127Arg)
[1]
  Axl and FLT3 phosphorylation: inhibited Axl and FLT3 phosphorylation
4T1 luciferase cells; 0.5 mg/kg iv twice a week, three weeks
  lung metastatic disease: significantly less metastatic disease than those treated with MYD1 Fc
4T1 luciferase cells; MYD1-72 Fc 1 mg/kg daily, TKIs 12.5 mg/kg twice daily, ex vivo bioluminescent imaging
  reduction in lung metastases compared to vehicle treated mice: 71%
4T1 luciferase cells; MYD1-72 Fc 1 mg/kg daily, TKIs 12.5 mg/kg twice daily, three weeks, vs control
  size of primary tumors: significantly reduced the size of primary tumors
4T1 luciferase cells; immunohistochemistry
  γH2AX positive cells in primary tumor: significantly more γH2AX positive cells compared to all other treatment groups
[2]
  pAxl and pAkt levels: significantly reduced pAxl and pAkt levels
  pMer and pTyro3 levels: pMer and pTyro3 remained relatively unchanged
Ovarian cancer cells [3]; complete media, 0.1 μg or 10 μg
  γH2AX foci: showed no changes across treatments
Ovarian cancer cells [3]; serum-limited conditions
  53BP1 and RAD51 foci: increased the numbers of both 53BP1 and RAD51 foci
Ovarian cancer cells [3]; serum-limited conditions, vs untreated controls
  number of γH2AX foci: significant increase in the number of γH2AX foci
wild-type cell lines
  XRCC1/Chk2 and BAX/BID expression: highly upregulated
[4]
  phospho-RPA32 level: Elevated phospho-RPA32 level
[4]; four time points
  phospho-ATM and phospho-ATR: significant induction of phospho-ATM and phospho-ATR at early time points
  phosphorylation of CHK1 and CHK2: increased phosphorylation of both CHK1 and CHK2
Ovarian cancer cells [5]; hydroxyurea in the presence and absence of MYD1-72 Fc
  γH2AX positive cells in combination with hydroxyurea: no additive effect was observed
Ovarian cancer cells [5]; treated group
  non-S phase cells (EdU negative) positive for γH2AX: 7%
  γH2AX positive cells that were also in S phase/EdU positive: 85%
OVCAR8
  reduction of tumor burden: 95%
skov3.ip
  decrease in tumor burden (by weight) vs controls: 51%
[6]
  γH2AX staining (DNA damage) in primary tumor: small effect on DNA damage

B1: MYD1 Ig1: first generation high affinity Axl Ig1 variant containing four mutations that conferred improved binding to Gas6 (protein)
chain: APRGTQAEESPFVSNPGNITGARGLTGTLRCQLQVQGEPPEVHWLRDGQILELADSTQTQVPLGEDEQGDWIVASQLRITSLQLSDTGQYQCLVFLGHQTFVSQPGYVRLEGLP
modifications: left off: small tags and cut ends
Human Gas6; Axl Ig1 variants, read-out: Kd hGas6
  Kd: 2.7 pM
Human Gas6; calculated as the product of the Kd and the kon
  koff: 4.0 10^−5 s^−1
Human Gas6; direct inject method
  kon: 1.6 10^7 M^−1 s^−1
Mouse Gas6
  binding to mouse Gas6: no increase in binding to mouse Gas6
